Results taken from ChEMBL document CHEMBL1201862, “PubChem BioAssay data set” (2004).
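Test compounds were applied to cells in 96-well plates for 48 hours at 5 doses. GI50 marks 50% less growth.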 Activity calls are given as the source filed them. Cut-off read from the data, not from the text of the source: active = GI50 up to about 1.1 µM and inactive = higher.

What was measured:
Assay in all cases: NCI-60 cell line screen, 48 h
[1] = test system: OVCAR-3
[2] = test system: HCT-15
[3] = test system: TK-10
[4] = test system: A549
[5] = test system: NCI-H23
[6] = test system: ACHN
[7] = test system: PC-3
[8] = test system: LOX IMVI
[9] = test system: SNB-75
[10] = test system: SF-295
[11] = test system: SK-MEL-28
[12] = test system: RXF 393
[13] = test system: MDA-MB-435
[14] = test system: COLO 205
[15] = test system: MDA-N
[16] = test system: CAKI-1
[17] = test system: UO-31
[18] = test system: OVCAR-5
[19] = test system: NCI-H460
[20] = test system: SF-268
[21] = test system: SR
[22] = test system: NCI/ADR-RES
[23] = test system: NCI-H522
[24] = test system: IGROV-1
[25] = test system: SN12C
[26] = test system: SNB-19
[27] = test system: SF-539
[28] = test system: HCT-116
[29] = test system: T47D
[30] = test system: Hs-578T
[31] = test system: U-251
[32] = test system: MCF7
[33] = test system: CCRF-CEM
[34] = test system: RPMI-8226
[35] = test system: SW-620
[36] = test system: UACC-62
[37] = test system: HOP-62
[38] = test system: HL-60
[39] = test system: OVCAR-8
[40] = test system: HCC 2998
[41] = test system: EKVX
[42] = test system: MOLT-4
[43] = test system: K562
[44] = test system: KM12
[45] = test system: MDA-MB-231
[46] = test system: Malme-3M
[47] = test system: UACC-257
[48] = test system: DU-145
[49] = test system: SK-MEL-5
[50] = test system: NCI-H226
[51] = test system: 786-0
[52] = test system: HT-29
[53] = test system: A498
[54] = test system: OVCAR-4
[55] = test system: SK-OV-3
[56] = test system: HOP-92
[57] = test system: M14
[58] = test system: SK-MEL-2

## CCOC(=O)c1ccc(Nc2nc3ccccc3nc2-c2cccs2)cc1
[1]
  GI50: 31 µM (inactive)
[2]
  GI50: 25.3 µM
[3]
  GI50: 23.3 µM (inactive)
[4]
  GI50: 66.4 µM (inactive)
[5]
  GI50: > 100 µM (inactive)
[6]
  GI50: 47.8 µM (inactive)
[7]
  GI50: 24.8 µM (inactive)
[8]
  GI50: 21.9 µM (inactive)
[9]
  GI50: 16.8 µM (inactive)
[10]
  GI50: 49.4 µM (inactive)
[11]
  GI50: > 100 µM (inactive)
[12]
  GI50: 23.7 µM (inactive)
[13]
  GI50: 36.9 µM (inactive)
[14]
  GI50: 96.6 µM (inactive)
[15]
  GI50: 19 µM (inactive)
[16]
  GI50: 21.9 µM (inactive)
[17]
  GI50: 73.6 µM (inactive)
[18]
  GI50: > 100 µM (inactive)
[19]
  GI50: 34 µM (inactive)
[20]
  GI50: 93.5 µM (inactive)
[21]
  GI50: 26.9 µM (inactive)
[22]
  GI50: 35.6 µM (inactive)
[23]
  GI50: 28.1 µM (inactive)
[24]
  GI50: > 100 µM (inactive)
[25]
  GI50: 21.2 µM (inactive)
[26]
  GI50: > 100 µM (inactive)
[27]
  GI50: > 100 µM (inactive)
[28]
  GI50: 80.5 µM (inactive)
[29]
  GI50: 16.9 µM (inactive)
[30]
  GI50: > 100 µM (inactive)
[31]
  GI50: 97.9 µM (inactive)
[32]
  GI50: 34 µM (inactive)
[33]
  GI50: 41.8 µM (inactive)
[34]
  GI50: 62.8 µM (inactive)
[35]
  GI50: > 10 µM (inactive)
[36]
  GI50: 4.24 µM (inactive)
[37]
  GI50: > 100 µM (inactive)
[38]
  GI50: 24.8 µM (inactive)
[39]
  GI50: 93.1 µM (inactive)
[40]
  GI50: 23.1 µM (inactive)
[41]
  GI50: 35.3 µM (inactive)
[42]
  GI50: 23.6 µM (inactive)
[43]
  GI50: 46.8 µM (inactive)
[44]
  GI50: 49.1 µM (inactive)
[45]
  GI50: 18.7 µM (inactive)
[46]
  GI50: > 100 µM (inactive)
[47]
  GI50: 39.8 µM (inactive)
[48]
  GI50: > 100 µM (inactive)
[49]
  GI50: 98.6 µM (inactive)
[50]
  GI50: > 100 µM (inactive)
[51]
  GI50: 50.7 µM (inactive)

## Cc1ccc(S(=O)(=O)N/N=C2\CC(C)OC3=C2CCCCCC3)cc1 (stereo not drawn)
[1]
  GI50: 19.7 µM (inactive)
[3]
  GI50: 20.5 µM (inactive)
[4]
  GI50: 16.7 µM (inactive)
[5]
  GI50: 20.5 µM (inactive)
[52]
  GI50: 17.5 µM (inactive)
[6]
  GI50: 18.5 µM (inactive)
[7]
  GI50: 19.2 µM (inactive)
[8]
  GI50: 18.7 µM (inactive)
[9]
  GI50: 24.2 µM (inactive)
[10]
  GI50: 15.8 µM (inactive)
[11]
  GI50: 22.1 µM (inactive)
[12]
  GI50: 17.6 µM (inactive)
[13]
  GI50: 18.5 µM (inactive)
[14]
  GI50: 20.9 µM (inactive)
[15]
  GI50: > 100 µM (inactive)
[16]
  GI50: 25.9 µM (inactive)
[17]
  GI50: 17.4 µM (inactive)
[18]
  GI50: 19.5 µM (inactive)
[19]
  GI50: > 100 µM (inactive)
[20]
  GI50: 19.9 µM (inactive)
[21]
  GI50: 17 µM (inactive)
[22]
  GI50: 20.5 µM (inactive)
[24]
  GI50: 19.1 µM (inactive)
[25]
  GI50: 19.3 µM (inactive)
[26]
  GI50: 22.2 µM (inactive)
[27]
  GI50: 20.5 µM (inactive)
[53]
  GI50: 15.5 µM (inactive)
[28]
  GI50: 16.5 µM (inactive)
[29]
  GI50: 76.6 µM (inactive)
[30]
  GI50: 21.2 µM (inactive)
[32]
  GI50: 19 µM (inactive)
[33]
  GI50: 24.7 µM (inactive)
[34]
  GI50: 21.9 µM (inactive)
[35]
  GI50: 20.5 µM (inactive)
[36]
  GI50: 14.5 µM (inactive)
[37]
  GI50: 18.5 µM (inactive)
[38]
  GI50: 23 µM (inactive)
[54]
  GI50: 19.8 µM (inactive)
[39]
  GI50: 21.2 µM (inactive)
[55]
  GI50: 26.1 µM (inactive)
[41]
  GI50: 15.2 µM (inactive)
[42]
  GI50: 14.6 µM (inactive)
[56]
  GI50: 19.6 µM (inactive)
[43]
  GI50: 21.5 µM (inactive)
[44]
  GI50: 19.7 µM (inactive)
[45]
  GI50: 19.1 µM (inactive)
[46]
  GI50: 21.7 µM (inactive)
[57]
  GI50: 20.3 µM (inactive)
[47]
  GI50: 18.7 µM (inactive)
[48]
  GI50: 19.4 µM (inactive)
[49]
  GI50: 16.9 µM (inactive)
[50]
  GI50: 21.6 µM (inactive)
[51]
  GI50: 17.1 µM (inactive)

## C#CC(O)/C=C/C(O)CCCC(O)CC#CC(O)C#CC(O)CCCC(O)/C=C/CCCC(=O)CCCCCCCCCCCCCCCC(O)C(O)C#CC(=O)O (stereo not drawn)
[2]
  GI50: > 50 µM
[3]
  GI50: > 50 µM (inactive)
[4]
  GI50: > 50 µM (inactive)
[5]
  GI50: > 50 µM (inactive)
[52]
  GI50: 28.1 µM (inactive)
[6]
  GI50: > 50 µM (inactive)
[7]
  GI50: > 50 µM (inactive)
[8]
  GI50: 10.3 µM (inactive)
[9]
  GI50: 20.1 µM (inactive)
[10]
  GI50: > 50 µM (inactive)
[11]
  GI50: > 50 µM (inactive)
[12]
  GI50: > 50 µM (inactive)
[13]
  GI50: > 50 µM (inactive)
[14]
  GI50: > 50 µM (inactive)
[15]
  GI50: > 50 µM (inactive)
[16]
  GI50: > 50 µM (inactive)
[17]
  GI50: 10.8 µM (inactive)
[18]
  GI50: > 50 µM (inactive)
[19]
  GI50: > 50 µM (inactive)
[20]
  GI50: > 50 µM (inactive)
[21]
  GI50: 19.3 µM (inactive)
[22]
  GI50: > 50 µM (inactive)
[23]
  GI50: 8.41 µM (inactive)
[24]
  GI50: 9.79 µM (inactive)
[25]
  GI50: > 50 µM (inactive)
[26]
  GI50: > 50 µM (inactive)
[28]
  GI50: > 50 µM (inactive)
[29]
  GI50: > 50 µM (inactive)
[30]
  GI50: > 50 µM (inactive)
[31]
  GI50: > 50 µM (inactive)
[32]
  GI50: > 50 µM (inactive)
[33]
  GI50: 14.1 µM (inactive)
[34]
  GI50: > 50 µM (inactive)
[36]
  GI50: > 50 µM (inactive)
[37]
  GI50: > 50 µM (inactive)
[38]
  GI50: 13.2 µM (inactive)
[54]
  GI50: 12.5 µM (inactive)
[39]
  GI50: > 50 µM (inactive)
[55]
  GI50: > 50 µM (inactive)
[58]
  GI50: > 50 µM (inactive)
[40]
  GI50: > 50 µM (inactive)
[41]
  GI50: > 50 µM (inactive)
[42]
  GI50: 43.6 µM (inactive)
[56]
  GI50: > 50 µM (inactive)
[43]
  GI50: > 50 µM (inactive)
[44]
  GI50: > 50 µM (inactive)
[45]
  GI50: > 50 µM (inactive)
[46]
  GI50: > 50 µM (inactive)
[57]
  GI50: > 50 µM (inactive)
[47]
  GI50: > 50 µM (inactive)
[48]
  GI50: > 50 µM (inactive)
[49]
  GI50: > 50 µM (inactive)
[50]
  GI50: > 50 µM (inactive)
[51]
  GI50: > 50 µM (inactive)
